# pKi: −log10 of the molar value.
# Molecular target: T1, chimeric human H3 receptor (Homo sapiens, UniProt Q9Y5N1)
# T1 construct: made in house; host or cells: Sf9 insect cells (baculovirus); P2 membrane preparation
# Assay: Chimeric human H3 receptor GTP binding assay (Example 7)
# Format: biochemical
# Conditions: agonist (1 μM histamine)-stimulated GTP-gamma35S binding, P2 membranes of Sf9 cells; Ki from IC50 by Cheng-Prusoff
# Text: This Example illustrates a representative assay for evaluating agonist-stimulated GTP-gamma^35S binding (“GTP binding”) activity. […] This agonist-stimulated GTP binding activity can also be used to detect partial agonism mediated by antagonist compounds. A compound analyzed in this assay is referred to herein as a “test compound.”
# Four independent baculoviral stocks (one directing the expression of the chimeric human H3 receptor and three directing the expression of each of the three subunits of a heterotrimeric G-protein) are used to infect a culture of Sf9 cells as described above. P2 membranes are prepared as described above, and agonist-stimulated GTP binding on the P2 membranes is assessed using histamine (Sigma Chemical Co., St. Louis, Mo.) as agonist in order to ascertain that the receptor/G-protein-alpha-beta-gamma combination(s) yield a functional response as measured by GTP binding. P2 membranes are resuspended by Dounce homogenization (tight pestle) in GTP binding assay buffer (50 mM Tris pH 7.4, 120 mM NaCl, 5 mM MgCl2, 2 mM EGTA, 1 mg/ml BSA, 0.2 mg/ml bacitracin, 0.02 mg/ml aprotinin, 0.01 mg/ml saponin, 10 μM GDP) and added to assay tubes at a concentration of 35 μg protein/reaction tube. After adding increasing doses of histamine at concentrations ranging from 10^−12 M to 10^−5 M, reactions are initiated by the addition of 125 pM GTP-gamma^35S (PERKIN ELMER; Boston, Mass.) with a final assay volume of 0.20 ml. In competition experiments, non-radiolabeled test compounds are added to separate reactions at concentrations ranging from 10^−10 M to 10^−6M along with 1 μM histamine to yield a final volume of 0.20 ml.
# Neutral antagonists are antagonists that are substantially free of inherent agonist activity, and include those test compounds that reduce the histamine-stimulated GTP binding activity towards, but not below, baseline levels. In contrast, in the absence of added histamine, inverse agonists reduce the GTP binding activity of the receptor-containing membranes below baseline.
# After a 60-min incubation at room temperature, reactions are terminated by vacuum filtration over WHATMAN GF/C filters (pre-soaked in wash buffer, 0.1% BSA) followed by washing with ice-cold wash buffer (50 mM Tris pH 7.4, 120 mM NaCl). The amount of receptor-bound (and thereby membrane-bound) GTE-gamma^35S is determined by measuring the filter-bound radioactivity, preferably by liquid scintillation spectrometry of the washed filters. Non-specific binding is determined in parallel assays including 10 μM unlabeled GTP-gammaS and typically represents less than 5 percent of total binding. Data is expressed as percent above basal (baseline). The results of GTP binding experiments are analyzed using SIGMAPLOT software (SPSS Inc., Chicago, Ill.). IC50 values are calculated by non-linear regression analysis of dose-response curves using Kaleidograph (Synergy Software, Reading, Pa.).
# Alternatively the data is analyzed as follows. First, the average bound radioactivity from negative control wells (no agonist) is subtracted from the bound radioactivity detected for each of the other experimental wells. Second, average bound radioactivity is calculated for the positive control wells (agonist wells). Then, percent inhibition for each compound tested is calculated using the equation:
# Calculated IC50 values are converted to Ki values by the Cheng-Prusoff correction (Cheng and Prusoff (1973) Biochem. Pharmacol. 22(23):3099-3108). Accordingly, the following equation: Ki=IC50/(1+[L]/EC50) is used, where [L] is the histamine concentration in the GTP binding assay, and EC50 is the concentration of histamine producing a 50% response, as determined by a dose-response analysis using concentrations of histamine ranging from 10^−10 M to 10^−6M. […]
# T1 sequence (Q9Y5N1 with tags, fused parts or gaps): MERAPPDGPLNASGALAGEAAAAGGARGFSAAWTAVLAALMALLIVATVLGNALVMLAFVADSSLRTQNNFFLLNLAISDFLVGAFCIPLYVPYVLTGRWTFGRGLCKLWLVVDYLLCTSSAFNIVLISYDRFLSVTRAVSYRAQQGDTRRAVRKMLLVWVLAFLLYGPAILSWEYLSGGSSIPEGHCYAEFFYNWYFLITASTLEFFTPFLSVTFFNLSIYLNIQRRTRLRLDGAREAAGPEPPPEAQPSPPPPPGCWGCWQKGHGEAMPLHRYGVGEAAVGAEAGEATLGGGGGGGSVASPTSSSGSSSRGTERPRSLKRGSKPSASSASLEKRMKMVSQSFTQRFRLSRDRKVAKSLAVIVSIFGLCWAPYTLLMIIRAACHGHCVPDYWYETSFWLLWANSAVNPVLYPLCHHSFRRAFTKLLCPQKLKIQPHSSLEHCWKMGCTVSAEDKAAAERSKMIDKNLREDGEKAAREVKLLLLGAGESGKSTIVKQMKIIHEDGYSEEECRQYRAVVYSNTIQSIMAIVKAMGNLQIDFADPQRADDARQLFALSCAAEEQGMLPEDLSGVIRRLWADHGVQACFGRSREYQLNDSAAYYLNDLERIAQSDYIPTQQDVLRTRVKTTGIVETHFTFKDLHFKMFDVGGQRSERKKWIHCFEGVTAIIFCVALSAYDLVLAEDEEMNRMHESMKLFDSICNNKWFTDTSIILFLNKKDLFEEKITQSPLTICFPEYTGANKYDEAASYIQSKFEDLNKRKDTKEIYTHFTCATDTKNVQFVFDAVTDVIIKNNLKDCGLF
row,Structure (SMILES),pKi
1,"O=C(CN1CCc2c([nH]c3c(F)cccc23)C1)N1CCN(C2CCC2)CC1 [Compound 25, 2-[2-(4-Cyclobutylpiperazin-1-yl)-2-oxoethyl]-8-fluoro-2,3,4,9-tetrahydro-1H-beta-carboline]",> 6.00
2,"O=C(CN1CCc2c([nH]c3ccccc23)C1)N1CCN2CCCCC2C1 (stereo not drawn) [Compound 32, 2-[2-(Octahydro-2H-pyrido[1,2-a]pyrazin-2-yl)-2-oxoethyl]-2,3,4,9-tetrahydro-1H-beta-carboline]",> 6.00
3,"O=C(CN1CCc2c([nH]c3cccc(F)c23)C1)N1CCN(C2CCC2)CC1 [Compound 26, 2-[2-(4-Cyclobutylpiperazin-1-yl)-2-oxoethyl]-5-fluoro-2,3,4,9-tetrahydro-1H-beta-carboline]",> 6.00
4,"CC(C)n1c2c(c3ccccc31)CCN(CC(=O)N1CCN(C3CCC3)CC1)C2 [Compound 30, 2-[2-(4-Cyclobutylpiperazin-1-yl)-2-oxoethyl]-9-isopropyl-2,3,4,9-tetrahydro-1H-beta-carboline]",> 6.00
5,"CCn1c2c(c3ccccc31)CCN(CC(=O)N1CCN(C3CCC3)CC1)C2 [Compound 28, 2-[2-(4-Cyclobutylpiperazin-1-yl)-2-oxoethyl]-9-ethyl-2,3,4,9-tetrahydro-1H-beta-carboline]",> 6.00
6,"CCCn1c2c(c3ccccc31)CCN(CC(=O)N1CCN(C3CCC3)CC1)C2 [Compound 29, 2-[2-(4-Cyclobutylpiperazin-1-yl)-2-oxoethyl]-9-propyl-2,3,4,9-tetrahydro-1H-beta-carboline]",> 6.00
7,"Cn1c2c(c3cc(F)ccc31)CCN(CC(=O)N1CCN(C3CCC3)CC1)C2 [Compound 23, 2-[2-(4-Cyclobutylpiperazin-1-yl)-2-oxoethyl]-6-fluoro-9-methyl-2,3,4,9-tetrahydro-1H-beta-carboline]",> 6.00
8,"O=C(CN1CCc2c(n(CC(F)(F)F)c3ccccc23)C1)N1CCN(C2CCC2)CC1 [Compound 31, 2-[2-(4-Cyclobutylpiperazin-1-yl)-2-oxoethyl]-9-(2,2,2-trifluoroethyl)-2,3,4,9-tetrahydro-1H-beta-carboline]",> 6.00
9,"COc1ccc2c(c1)c1c(n2C)CN(CC(=O)N2CCN(C3CCC3)CC2)CC1 [Compound 19, 2-[2-(4-Cyclobutylpiperazin-1-yl)-2-oxoethyl]-6-methoxy-9-methyl-2,3,4,9-tetrahydro-1H-beta-carboline]",> 6.00
10,"CC1CCCC2CN(C(=O)CN3CCc4c([nH]c5ccccc45)C3)CCN12 (stereo not drawn) [Compound 33, 2-[2-(6-Methyloctahydro-2H-pyrido[1,2-a]pyrazin-2-yl)-2-oxoethyl]-2,3,4,9-tetrahydro-1571H-beta-carboline]",> 6.00
11,"COc1ccc2[nH]c3c(c2c1)CCN(CC(=O)N1CCN(C2CCC2)CC1)C3 [Compound 18, 2-[2-(4-Cyclobutylpiperazin-1-yl)-2-oxoethyl]-6-methoxy-2,3,4,9-tetrahydro-1H-beta-carboline]",> 6.00

# The next lines start with the values.
row,pKi,Structure (SMILES)
1,> 6.00,"Cc1ccc2[nH]c3c(c2c1)CCN(CC(=O)N1CCN(C2CCC2)CC1)C3 [Compound 20, 2-[2-(4-Cyclobutylpiperazin-1-yl)-2-oxoethyl]-6-methyl-2,3,4,9-tetrahydro-1H-beta-carboline]"
2,> 6.00,"O=C(CN1CCc2c([nH]c3ccc(Br)cc23)C1)N1CCN(C2CCC2)CC1 [Compound 22, 6-Bromo-2-[2-(4-cyclobutylpiperazin-1-yl)-2-oxoethyl]-2,3,4,9-tetrahydro-1H-beta-carboline]"
3,> 6.00,"O=C(CN1CCc2c([nH]c3ccc(F)cc23)C1)N1CCN(C2CCC2)CC1 [Compound 21, 2-[2-(4-Cyclobutylpiperazin-1-yl)-2-oxoethyl]-6-fluoro-2,3,4,9-tetrahydro-1H-beta-carboline]"
4,> 6.00,"O=C(CN1CCc2c([nH]c3cc(-c4cncnc4)ccc23)C1)N1CCN(C2CCC2)CC1 [Compound 27, 2-[2-(4-Cyclobutylpiperazin-1-yl)-2-oxoethyl]-7-pyrimidin-5-yl-2,3,4,9-tetrahydro-1H-beta-carboline]"
5,> 6.00,"O=C(CN1CCc2c([nH]c3cc(F)ccc23)C1)N1CCN(C2CCC2)CC1 [Compound 24, 2-[2-(4-Cyclobutylpiperazin-1-yl)-2-oxoethyl]-7-fluoro-2,3,4,9-tetrahydro-1H-beta-carboline]"

# Source: US20110002855A1 (NEUROGEN CORPORATION, priority 2007, published 2011)
